Patent US20170000126A1, “METHOD FOR INHIBITING CONIDIAL GERMINATION AND MYCELIAL GROWTH OF FUNGI SYMBIOTICALLY ASSOCIATED WITH BARK BEETLES” (Montana State University - Billings, priority 2015, published 2017)

What was measured:
[1] = system: Ceratocystiopsis brevicomi; test: disk diffusion assay; format: cell-based; conditions: C. brevicomi; 50-300 μg per disk
Procedure: (§1) The second assay is based on the standard “disk diffusion assay” routinely used in antimicrobial testing. Fungi are grown and harvested as for the microplate assay. After diluting 1:10, 150 μl of filtered conidia are spread evenly onto an Malt Extract Agar (MEA) plate. For each plate, 50 μg (0.12 μmole), 100 μg (0.25 μmole), 200 μg (0.50 μmole) and 300 μg (0.75 μmole) of the appropriate molecule (dissolved in DMSO) are spotted onto four separate Whatman Grade AA 6 mm filter disks. A control disk with 20 μl of DMSO only is also prepared. The DMSO is allowed to evaporate completely from each disk at room temperature and then the molecule-impregnated disks are positioned equidistant from each other on a plate. Plates are incubated at room temperature for 3 to 7 days, depending on the fungal species. At the end of the incubation period, the zone of inhibition (i.e., the region around each disk where no growth is visible) is measured from edge to edge of visible growth across and over the center of the disk. Images of the disk assays are obtained using an Epson Perfection V750 Pro desktop scanner.
(§2) Strains of G. clavigera, O. montium and C. brevicomi were obtained from Dr. Diana Six at the University of Montana and maintained on MEA plates (see below) at room temperarture.
(§3) Each small molecule was dissolved in dimethyl sulfoxide (DMSO) as a 10 mM stock and diluted directly into 100 μl of the appropriate YPD medium at 50 μM, 100 μM, 200 μM and 300 μM final concentration (for the microplate assay) or spotted onto Whatman 6 mm filter disks in 50 microgram (μg), 100 μg, 200 μg or 300 μg amounts (for the disk diffusion assay). The control condition (no small molecule) included DMSO to a concentration equivalent to that of the small molecule-containing wells or filter disks.
(§4) In order to identify additional inhibitors of morphogenesis, we employed a core structure search of the Chembridge chemical database and identified 72 compounds of related structure to BH3I-1 (the “core structure” used in the database searches was defined as the benzylidene group attached to a thiazolidine ring). The BH3I-1-related molecules were tested in the disk diffusion assay (200 μg per disk) for anti-fungal activity against all three species of bark beetle-associated fungi. […] These molecules were retested three separate times with 50, 100, 200 and 300 μg per disk (FIGS. 6, 7, 8, 9, 10).

Grosmannia clavigera [2] = test: disk diffusion assay; format: cell-based; conditions: G. clavigera; 50-300 μg per disk
Procedure: as §1, §2, §3, §4

Ophiostoma montium [3] = test: disk diffusion assay; format: cell-based; conditions: O. montium; 50-300 μg per disk
Procedure: as §1, §2, §3, §4

C. albicans = conditions: previous finding of the inventors (ref. 5); cited from earlier work
[4] = system: Ceratocystiopsis brevicomi; test: microplate assay (conidial germination and mycelial growth); format: cell-based; conditions: C. brevicomi
Procedure: (§5) In the first assay, referred to as the “microplate assay”, fungi are first grown in liquid medium at 25° C. for 48 hours, and conidia are harvested by filtration through cheese cloth. The conidia are then transferred to the wells of an optical microplate containing (i) growth medium and (ii) varying concentrations of BH3I-1 (typically 0, 50, 100, 200 and 300 μM BH3I-1). The microplates are incubated for up to 120 hrs at 25° C. Germination and mycelial growth are monitored visually with a Nikon TE200 inverted microscope and spectrophotometrically in a Biotek Synergy H4 plate reader. For the spectrophotometric analysis, Optical Density 600 (OD600) readings are taken every six hours over the course of the experiment.
as §2
(§6) YPD medium (1% Yeast Extract, 2% Peptone and 2% Dextrose), a standard fungal growth medium, is used for these experiments. YPD plates included 1.5% agar.
as §3

Grosmannia clavigera [5] = test: as above; format: cell-based; conditions: G. clavigera
Procedure: as §5, §2, §6, §3

Ophiostoma montium [6] = test: as above; format: cell-based; conditions: O. montium
Procedure: as §5, §2, §6, §3

SMILES	anti-fungal activity (inhibition of conidial germination and mycelial growth) [1]	anti-fungal activity (inhibition of conidial germination and mycelial growth) (Grosmannia clavigera [2])	anti-fungal activity (inhibition of conidial germination and mycelial growth) (Ophiostoma montium [3])	inhibition of morphogenesis (yeast-to-filamentous growth transition) (C. albicans)	inhibition of conidial germination and mycelial growth [4]	conidial cells failed to germinate (Grosmannia clavigera [5]; 100 μM)	mycelial growth of conidia that did germinate (Grosmannia clavigera [5]; 100 μM)	time for which growth inhibition was maintained (Grosmannia clavigera [5]; 25° C., YPD) [h]	inhibition of conidial germination and mycelial growth (Ophiostoma montium [6])
CC(C)C(C(=O)O)N1C(=O)C(=Cc2ccc(Cl)cc2)SC1=S (stereo not drawn) [BH3I-1-12, 2-[5-(4-chlorobenzylidene)-4-oxo-2-thioxo-1,3-thiazolidin-3-yl]-3-methylbutanoic acid]	inhibit the conidial germination and mycelial growth	inhibit the conidial germination and mycelial growth	inhibit the conidial germination and mycelial growth	–	–	–	–	–	–
CCCC(C(=O)O)N1C(=O)C(=Cc2ccc(O)cc2)SC1=S (stereo not drawn) [BH3I-1-66, 2-[5-(4-hydroxybenzylidene)-4-oxo-2-thioxo-1,3-thiazolidin-3-yl]pentanoic acid]	inhibit the conidial germination and mycelial growth	inhibit the conidial germination and mycelial growth	inhibit the conidial germination and mycelial growth	–	–	–	–	–	–
CC(C)c1ccc(C=C2SC(=S)N(CC(=O)O)C2=O)cc1 [BH3I-1-68, [5-(4-isopropylbenzylidene)-4-oxo-2-thioxo-1,3-thiazolidin-3-yl]acetic acid]	inhibit the conidial germination and mycelial growth	inhibit the conidial germination and mycelial growth	inhibit the conidial germination and mycelial growth	–	–	–	–	–	–
CCCC(C(=O)O)N1C(=O)C(=Cc2ccccc2Cl)SC1=S (stereo not drawn) [BH3I-1-69, 2-[5-(2-chlorobenzylidene)-4-oxo-2-thioxo-1,3-thiazolidin-3-yl]pentanoic acid]	inhibit the conidial germination and mycelial growth	inhibit the conidial germination and mycelial growth	inhibit the conidial germination and mycelial growth	–	–	–	–	–	–
CC(C)C(C(=O)O)N1C(=O)C(=Cc2ccc(Br)cc2)SC1=S (stereo not drawn) [BH3I-1, 5-(p-Bromobenzylidine)-α-isopropyl-4-oxo-2-thioxo-3-thiozolidineacetic acid]	inhibit the conidial germination and mycelial growth	inhibit the conidial germination and mycelial growth	inhibit the conidial germination and mycelial growth	inhibits	inhibited conidial germination and mycelial growth	approximately 80%	mycelia grew for a few hours and then stopped	120	inhibited conidial germination and mycelial growth
